The values below come from patent publication US20220185793A1, “COMPOUNDS FOR THE TREATMENT OF ONCOVIRUS INDUCED CANCER AND METHODS OF USE THEREOF” (Cellestia Biotech AG, priority 2019, published 2022).

The term IC50 denotes the midpoint of a concentration-inhibition curve. Broadly, the inhibition is the percentage by which the read-out fell short of the control. Low values mean a weak effect, high ones a strong effect.

Test [1] concerns EBV positive human B HG-3 cells. Briefly: PrestoBlue proliferation assay in HG-3 cells. The test is classed as cell-based. The note with it: 72 hours; for anti-proliferative effect on HG-3 cells (in words): PrestoBlue, FIG. 2 and Table 4; for IC50: Homo sapiens, concentration range 0.03-100 μM, PrestoBlue assay, read-out: Anti-proliferative IC50 values (μM) in HG-3 cells. As for the experimental part: One million human EBV positive lymphoma cell lines HG3 and LCL070903 (Rosén et al., 2012) were cultured in RPMI1640 media supplemented with 10% FCS. […] Following treatment cells were harvested and washed with 1× PBS. Total RNA was extracted as described below.
Alamarblue® and PrestoBlue proliferation assays were performed to determine the growth kinetics of EBV inhibitor treated cells. Alamar blue® and PrestoBlue consists of a cell permeable substrate resazurin. In metabolically active and proliferating cells, resazurin is converted to resorufin due to an intrinsic reducing power of live cells and produces a red fluorescence. Therefore production of resorufin serves as an indicator of the viability of the cell population.
Proliferation assays were performed by seeding 5000 cells/well in a 96 well plate. […] Each concentration was tested in 4 replicates. To determine the growth kinetics, 10 μl of Alamar blue® or PrestoBlue (Invitrogen) was added to each well and incubated for 4 hours. Readout was taken using Tecan F500 (Tecan) multiplate reader or Varioskan LUX (ThermoFisher) multiplate reader.
In brief, HG-3 cells were plated in a 96 well plate and treated with an increasing concentration of compounds.

Test [2] deals with BMI1 (EBV target gene). Briefly: EBV target gene downregulation (qPCR) in HG-3 cells: BMI1. It counts as cell-based, human. The note with it: 48 hours; for potency in downregulating EBV pathway (BMI1) compared with 6-(4-tert-butylphenoxy)pyridin-3-amine (in words): 10 μM, qRT-PCR, FIG. 4; for inhibition at 10 µM: Homo sapiens, mRNA by qPCR, Table 5. As for the experimental part: EBV positive human B HG-3 cells were treated with 10 μM of the mentioned compounds for 48 hours. Following treatment, total RNA was extracted and mRNA expression analysed by qRT-PCR.
(§1) One million human EBV positive lymphoma cell lines HG3 and LCL070903 (Rosén et al., 2012) were cultured in RPMI1640 media supplemented with 10% FCS. For RNA expression analysis cells were treated with compounds at 10 μM concentration and for proliferation assay cells were treated at a concentration range of 0.01-100 μM. Following treatment cells were harvested and washed with 1× PBS. Total RNA was extracted as described below.
(§2) Total RNA was extracted from cells using TRIzol® extraction kit (Invitrogen). Briefly, 1×10^6 cells were washed with ice-cold 1× PBS and lysed in 1 ml of TRIzol® solution for 5 minutes at room temperature to dissociate nucleoprotein complexes. Lysed cells were then treated with 200 μl of chloroform and shaked vigorously for 15-30 seconds and incubated at room temperature for 2-3 minutes. The samples were centrifuged at 14000 rpm using Eppendorf table top centrifuge for 10 minutes at 4° C. Following centrifugation, upper aqueous phase was transferred to new eppendorf tubes. To precipitate total RNA 500 μl of […] was added to the separated aqueous phase and incubated at room temperature for 10 minutes. A RNA pellet was obtained by centrifuging the samples at 4° C. for 10 minutes. RNA pellet obtained was washed with 1 ml ice cold 75% ethanol and spun down at 14000 rpm at 4° C. RNA pellet was dried off of excess of ethanol and resuspended in 40 IA DPEC water.
(§3) Total RNA extracted from the cell was used to synthesize cDNA by reverse transcription reaction. Reverse transcription was performed according to one of the two following protocols.
(§4) In first protocol, SuperScript™ RT (Invitrogen) was used for reverse transcription reaction. RNA concentration was measured using NanoDrop®ND-1000 spectrophotometer (Witec AG) and 500 ng of total RNA was mixed with a 10 mM mix of dNTPs and 100 ng of random primers. The reaction mix was incubated at 65° C. for 5 minutes and quickly incubated on ice for 1 minute. Following incubation on ice, 5× first strand buffer and 0.1M DTT were added and mix was incubated for 2 minutes at 25° C. To start the reverse transcription reaction, 200U of SuperScrip™ II RT was added to the reaction mix and incubated at 42° C. for 50 minutes. The reaction was stopped by incubating the reaction mix at 75° C. for 15 minutes.
(§5) In second protocol, reverse transcription was performed using PrimeScript RT Master Mix (Takara). RNA concentration was measured using NanoDrop®ND-1000 spectrophotometer (Witec AG) and 1 μg of total RNA was mixed with 4 μL 5X PrimeScript RT Master Mix in a total reaction volume of 20 μL. The reaction mix was incubated at 37° C. for 15 minutes followed by heat inactivation at 85° C. for 5 seconds.
(§6) QRT-PCR was carried out using 7900 HT Fast Real-Time PCR system (Applied Biosystems) or QuantStudio 3 system (ThermoFisher). Briefly, 12.5 ng of template cDNA was used with a primer concentration of 0.5 μM each and lx SYBR Green dye in a final volume of 10 μL in a 96 well or 384 well plate format.
(§7) Upon infection of human cells, EBV is known to induce cancerous transformation of cells via upregulation of host as well as viral genes (e.g LMP1, EBNA2, BATF1, BMI1 and CD21). To determine the ability of compounds to downregulate EBV driven gene expression, HG-3 and LCL070903 cells were treated with selected compounds and percentage inhibition of EBV target genes was determined by quantitative PCR. As shown in Table 5 and Table 6, compounds down regulate EBV target genes such as BMI1 in HG-3 and LCL070903 cells, respectively (FIGS. 3 and 4).

Test [3] relates to LMP1. Briefly: EBV target gene downregulation (qPCR) in LCL070903 cells: LMP1. The test is classed as cell-based. The note with it: Homo sapiens, mRNA by qPCR, Table 6. As for the experimental part: as §1
(§8) Total RNA was extracted from cells using TRIzol® extraction kit (Invitrogen). Briefly, 1×10^6 cells were washed with ice-cold 1× PBS and lysed in 1 ml of TRIzol® solution for 5 minutes at room temperature to dissociate nucleoprotein complexes. Lysed cells were then treated with 200 μl of chloroform and shaked vigorously for 15-30 seconds and incubated at room temperature for 2-3 minutes. […]
(§9) In first protocol, SuperScript™ RT (Invitrogen) was used for reverse transcription reaction. RNA concentration was measured using NanoDrop®ND-1000 spectrophotometer (Witec AG) and 500 ng of total RNA was mixed with a 10 mM mix of dNTPs and 100 ng of random primers. […]
(§10) In second protocol, reverse transcription was performed using PrimeScript RT Master Mix (Takara). RNA concentration was measured using NanoDrop®ND-1000 spectrophotometer (Witec AG) and 1 μg of total RNA was mixed with 4 μL 5X PrimeScript RT Master Mix in a total reaction volume of 20 μL. […]
(Real-time PCR tracks product formation cycle by cycle.)

Test [4] relates to EBNA2. Briefly: EBV target gene downregulation (qPCR) in LCL070903 cells: EBNA2. The test is classed as cell-based. The note with it: Homo sapiens, mRNA by qPCR, Table 6. As for the experimental part: as §1, §2, §3, §4, §5, §6, §7
Test [5] deals with BMI1 (EBV target gene). Briefly: EBV target gene downregulation (qPCR) in LCL070903 cells: BMI1. The test is classed as cell-based, human. The note with it: 48 hours; for potency in downregulating EBV pathway (BMI1) compared with 6-(4-tert-butylphenoxy)pyridin-3-amine (in words): 10 μM, qRT-PCR, FIG. 3; for inhibition at 10 µM: Homo sapiens, mRNA by qPCR, Table 6. As for the experimental part:
EBV positive human B LCL070903 cells were treated with 10 μM of the mentioned compounds for 48 hours. Following treatment, total RNA was extracted and mRNA expression analysed by qRT-PCR.
as §1, §2, §3, §4, §5, §6, §7

The test system of test [6] is CD21. Briefly: EBV target gene downregulation (qPCR) in LCL070903 cells: CD21. The note with it: Homo sapiens, mRNA by qPCR, Table 6. The test is classed as cell-based. As for the experimental part:
as §1
as §2, with “A RNA pellet was obtained by centrifuging the samples at 4° C. for 10 minutes. RNA pellet obtained was washed with 1 ml ice cold 75% ethanol and spun down at 14000 rpm at 4° C. RNA pellet was dried off of excess of ethanol and resuspended in 40 IA DPEC water.” left out
as §9, §10
Upon infection of human cells, EBV is known to induce cancerous transformation of cells via upregulation of host as well as viral genes (e.g LMP1, EBNA2, BATF1, BMI1 and CD21). To determine the ability of compounds to downregulate EBV driven gene expression, HG-3 and LCL070903 cells were treated with selected compounds and percentage inhibition of EBV target genes was determined by quantitative PCR. […]

Test [7] has as its system EBNA2. Briefly: EBV target gene downregulation (qPCR) in HG-3 cells: EBNA2. The test is classed as cell-based. The note with it: Homo sapiens, mRNA by qPCR, Table 5. As for the experimental part:
as §1, §2, §3, §4, §5, §6
To determine the ability of compounds to downregulate EBV driven gene expression, HG-3 cells were treated with selected compounds and percentage inhibition of EBV target genes was determined by quantitative PCR. […] To further determine the anti-oncoviral specificity of compounds, these compounds were tested for their ability to downregulate a NOTCH target gene HES1 in a NOTCH1 positive (EBV negative) human leukemic cell line RPMI8402.
as §7

For test [8], the system named is CD21. Briefly: EBV target gene downregulation (qPCR) in HG-3 cells: CD21. The test is classed as cell-based. The note with it: Homo sapiens, mRNA by qPCR, Table 5. As for the experimental part: as §1, §8, §9, §10

Regarding `c1ccc(-c2ccc(Oc3ccc(NCc4cccnc4)cn3)cn2)cc1` [Example 21, 6-((6-Phenylpyridin-3-yl)oxy)-N-(pyridin-3-ylmethyl)pyridin-3-amine], the “anti-proliferative effect on HG-3 cells (in words)” value (“anti-proliferative effect” for short) in test [1] was “demonstrate anti-proliferative effect”. Also, the IC50 in test [1] came out at 3.8 µM. Also, the “potency in downregulating EBV pathway (BMI1) compared with 6-(4-tert-butylphenoxy)pyridin-3-amine (in words)” value in test [2] and in test [5] was “enhanced potency” in each case. The inhibition at 10 µM in test [2] was 47%; in test [3] it was 12%; in test [4], 50%; in test [5], 51%; in test [6] it was 9%.
`c1cncc(CNc2ccc(Oc3ccc(-c4cncs4)cc3)nc2)c1` [Example 27, N-(pyridin-3-ylmethyl)-6-(4-(thiazol-5-yl)phenoxy)pyridin-3-amine]: in test [1], the “anti-proliferative effect” value was “demonstrate anti-proliferative effect” and the IC50 was 1.9 µM. The “potency in downregulating EBV pathway (BMI1) compared with 6-(4-tert-butylphenoxy)pyridin-3-amine (in words)” value in test [2] was “enhanced potency”. In addition, in test [5], the “potency in downregulating EBV pathway (BMI1) compared with 6-(4-tert-butylphenoxy)pyridin-3-amine (in words)” value is “enhanced potency” and the inhibition at 10 µM turned out to be 66%. For the same compound, the inhibition at 10 µM in test [6] amounted to 22%.
For the compound `Cc1ccccc1-c1ccc(Oc2ccc(NCc3cccnc3)cc2)cc1C` [Example 28, 4-((2,2′-Dimethyl-[1,1′-biphenyl]-4-yl)oxy)-N-(pyridin-3-ylmethy)aniline], in test [1], the “anti-proliferative effect” value is reported as “demonstrate anti-proliferative effect”. Besides, the IC50 in test [1] was 1.5 µM. Besides, the inhibition at 10 µM in test [7] stood at 36%; in test [2], 51%; in test [3] it was 24%; in test [4] it was 43%; in test [5], 61%; in test [6], 1%. The “potency in downregulating EBV pathway (BMI1) compared with 6-(4-tert-butylphenoxy)pyridin-3-amine (in words)” value in test [2] and in test [5] was “enhanced potency” in each case.
As to `OC(c1ccc(NCc2cccnc2)cc1)c1ccc(-c2ccc(F)cc2)cc1` (stereo not drawn) [Example 30, (4′-Fluoro-[1,1′-biphenyl]-4-yl)(4-((pyridin-3-ylmethyl)amino)phenyl)methanol], the values for the inhibition at 10 µM in test [8], in test [2] and in test [5] were 10%, 31% and 54%, respectively. Besides, the “potency in downregulating EBV pathway (BMI1) compared with 6-(4-tert-butylphenoxy)pyridin-3-amine (in words)” value in test [2] and in test [5] was “enhanced potency” in each case.
